Results reported in patent publication US20070021434A1, “NON-NUCLEOSIDE ANTI-HEPACIVIRUS AGENTS AND USES THEREOF” (Migenix Inc., priority 2005, published 2007).

The compounds below were run against HCV RdRp (NS5B) (UniProt P26663).
Sequence of HCV RdRp (NS5B) (P26663 whole entry, looked up): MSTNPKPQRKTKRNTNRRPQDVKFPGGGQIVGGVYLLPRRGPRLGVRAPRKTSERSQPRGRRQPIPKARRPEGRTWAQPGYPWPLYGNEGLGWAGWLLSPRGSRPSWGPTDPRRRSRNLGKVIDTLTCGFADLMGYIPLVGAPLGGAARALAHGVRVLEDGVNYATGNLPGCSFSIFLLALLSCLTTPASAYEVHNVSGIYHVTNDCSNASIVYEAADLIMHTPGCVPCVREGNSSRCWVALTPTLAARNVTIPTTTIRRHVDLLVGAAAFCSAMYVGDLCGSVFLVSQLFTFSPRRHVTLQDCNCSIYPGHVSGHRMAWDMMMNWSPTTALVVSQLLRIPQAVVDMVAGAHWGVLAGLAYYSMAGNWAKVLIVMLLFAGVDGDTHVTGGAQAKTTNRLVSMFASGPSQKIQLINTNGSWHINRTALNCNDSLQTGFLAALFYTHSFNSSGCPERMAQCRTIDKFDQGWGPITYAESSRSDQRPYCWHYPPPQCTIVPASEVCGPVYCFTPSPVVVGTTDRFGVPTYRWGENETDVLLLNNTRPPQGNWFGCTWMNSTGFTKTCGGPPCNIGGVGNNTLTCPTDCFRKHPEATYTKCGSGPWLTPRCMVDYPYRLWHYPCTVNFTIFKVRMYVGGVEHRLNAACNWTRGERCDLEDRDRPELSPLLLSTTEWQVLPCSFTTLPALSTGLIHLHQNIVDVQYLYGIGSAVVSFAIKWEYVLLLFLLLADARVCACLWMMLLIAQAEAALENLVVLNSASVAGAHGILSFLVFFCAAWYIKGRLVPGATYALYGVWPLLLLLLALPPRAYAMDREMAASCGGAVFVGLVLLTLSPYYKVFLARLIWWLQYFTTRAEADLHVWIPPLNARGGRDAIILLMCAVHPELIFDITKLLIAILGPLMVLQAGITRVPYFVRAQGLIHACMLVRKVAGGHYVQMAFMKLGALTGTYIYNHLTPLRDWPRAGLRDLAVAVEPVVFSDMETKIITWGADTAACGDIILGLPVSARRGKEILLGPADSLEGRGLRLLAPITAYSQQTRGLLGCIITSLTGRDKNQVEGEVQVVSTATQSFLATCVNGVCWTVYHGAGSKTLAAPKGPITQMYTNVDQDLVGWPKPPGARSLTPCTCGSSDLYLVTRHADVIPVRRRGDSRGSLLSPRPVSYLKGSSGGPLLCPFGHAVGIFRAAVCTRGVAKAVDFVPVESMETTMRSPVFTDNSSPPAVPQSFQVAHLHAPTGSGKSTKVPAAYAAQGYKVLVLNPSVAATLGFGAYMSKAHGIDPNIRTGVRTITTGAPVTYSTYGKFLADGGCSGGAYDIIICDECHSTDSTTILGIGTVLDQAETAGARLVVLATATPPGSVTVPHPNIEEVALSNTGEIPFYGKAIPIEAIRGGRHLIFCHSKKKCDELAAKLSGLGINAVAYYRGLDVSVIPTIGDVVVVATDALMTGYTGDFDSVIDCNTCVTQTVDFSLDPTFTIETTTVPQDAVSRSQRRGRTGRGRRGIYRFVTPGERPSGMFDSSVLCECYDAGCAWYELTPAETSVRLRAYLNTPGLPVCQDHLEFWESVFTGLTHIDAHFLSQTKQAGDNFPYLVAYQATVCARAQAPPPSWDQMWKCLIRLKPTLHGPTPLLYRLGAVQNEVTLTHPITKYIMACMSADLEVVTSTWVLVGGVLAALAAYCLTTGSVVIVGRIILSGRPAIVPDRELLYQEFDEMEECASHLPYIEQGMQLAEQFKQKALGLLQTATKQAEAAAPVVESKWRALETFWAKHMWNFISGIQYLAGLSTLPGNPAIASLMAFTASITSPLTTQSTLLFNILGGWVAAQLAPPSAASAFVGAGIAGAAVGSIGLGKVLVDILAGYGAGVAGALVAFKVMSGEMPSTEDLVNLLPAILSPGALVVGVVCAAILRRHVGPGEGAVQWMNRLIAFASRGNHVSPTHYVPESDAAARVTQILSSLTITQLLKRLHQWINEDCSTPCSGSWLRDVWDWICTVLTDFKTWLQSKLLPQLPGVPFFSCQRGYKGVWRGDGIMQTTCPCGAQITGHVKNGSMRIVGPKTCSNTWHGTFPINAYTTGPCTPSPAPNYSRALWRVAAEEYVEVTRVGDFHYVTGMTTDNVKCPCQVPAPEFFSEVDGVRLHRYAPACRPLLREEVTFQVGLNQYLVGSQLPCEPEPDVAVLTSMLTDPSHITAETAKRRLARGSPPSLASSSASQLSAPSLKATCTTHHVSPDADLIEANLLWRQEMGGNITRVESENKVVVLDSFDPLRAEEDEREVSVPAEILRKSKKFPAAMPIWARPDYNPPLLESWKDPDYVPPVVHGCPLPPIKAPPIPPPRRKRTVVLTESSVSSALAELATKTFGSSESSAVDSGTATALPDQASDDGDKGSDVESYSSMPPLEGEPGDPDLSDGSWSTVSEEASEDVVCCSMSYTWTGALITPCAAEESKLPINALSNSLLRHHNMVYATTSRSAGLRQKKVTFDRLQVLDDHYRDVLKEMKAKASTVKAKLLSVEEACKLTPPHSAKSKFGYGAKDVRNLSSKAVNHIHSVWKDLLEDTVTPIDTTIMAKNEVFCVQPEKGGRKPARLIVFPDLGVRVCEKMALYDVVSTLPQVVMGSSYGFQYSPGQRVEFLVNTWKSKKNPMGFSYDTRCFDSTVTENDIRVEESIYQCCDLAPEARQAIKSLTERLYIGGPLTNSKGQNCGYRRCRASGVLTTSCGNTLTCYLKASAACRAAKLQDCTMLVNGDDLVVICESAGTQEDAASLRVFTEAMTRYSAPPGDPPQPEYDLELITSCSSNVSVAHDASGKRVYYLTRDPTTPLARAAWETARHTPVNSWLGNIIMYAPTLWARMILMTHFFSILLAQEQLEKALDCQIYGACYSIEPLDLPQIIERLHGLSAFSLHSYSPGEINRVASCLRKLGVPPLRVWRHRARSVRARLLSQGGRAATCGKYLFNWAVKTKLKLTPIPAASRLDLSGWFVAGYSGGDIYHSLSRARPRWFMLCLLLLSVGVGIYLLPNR
Assay type: biochemical, hepatitis C virus
`Cc1ccc(NC(=O)C(CCCCN)NC(=O)Nc2ccc(CCc3ccccc3)cc2)cc1` [Compound 243, (S)-6-AMINO-2-[3-(4-PHENETHYL-PHENYL)-UREIDO]-HEXANOIC ACID P-TOLYLAMIDE] gave an IC50 greater than 50 µM. For `NCCCC[C@H](NC(=O)Nc1ccc(OCc2ccccc2)cc1)C(=O)Nc1ccc(-n2ccnc2)cc1` [Compound 317, (S)-6-AMINO-2-[3-(4-BENZYLOXY-PHENYL)-UREIDO]-HEXANOIC ACID (4-IMIDAZOL-1-YL-PHENYL)-AMIDE], the IC50 was greater than 50 µM. `Cc1ccc(NC(=O)[C@H](CCCCN)NS(=O)(=O)c2cccc3ccccc23)cc1` [Compound 68, (S)-6-AMINO-2-(NAPHTHALENE-1-SULFONYLAMINO)-HEXANOIC ACID P-TOLYLAMIDE] gave an IC50 greater than 50 µM. With `N[C@@H](CNC(=O)OCC1c2ccccc2-c2ccccc21)C(=O)Nc1ccc(CN(C(=O)c2ccco2)C2CCCCC2)cc1` [Compound 17, (S)-[2-AMINO-2-(4-{[CYCLOHEXYL-(FURAN-2-CARBONYL)-AMINO]-METHYL}-PHENYLCARBAMOYL)-ETHYL]-CARBAMIC ACID 9H-FLUOREN-9-YLMETHYL ESTER] the IC50 was 10 to 50 µM. For `Cc1ccc(NC(=O)[C@H](CCCCN)NC(=O)Nc2ccc(OCc3ccncc3)cc2)cc1` [Compound 279, (S)-6-AMINO-2-{3-[4-(PYRIDIN-4-YLMETHOXY)-PHENYL]-UREIDO}-HEXANOIC ACID P-TOLYLAMIDE], the IC50 was greater than 50 µM. `NCCCCCCNC(=O)[C@@H](NC(=O)OCC1c2ccccc2-c2ccccc21)c1ccccc1` [Compound 313, (S)-[(6-AMINO-HEXYLCARBAMOYL)-PHENYL-METHYL]-CARBAMIC ACID 9H-FLUOREN-9-YLMETHYL ESTER] showed an IC50 of 10 to 50 µM. `NCCCC[C@H](NC(=O)OCC1c2ccccc2-c2ccccc21)C(=O)NCCc1c[nH]c2ccccc12` [Compound 57, (S)-{5-AMINO-1-[2-(1H-INDOL-3-YL)-ETHYLCARBAMOYL]-PENTYL}-CARBAMIC ACID 9H-FLUOREN-9-YLMETHYL ESTER] was tested, and the IC50 was greater than 50 µM. In the case of `NCCCC[C@H](NC(=O)[C@@H](N)Cc1c[nH]c2ccccc12)C(=O)Nc1ccc(CN(C(=O)c2ccco2)C2CCCCC2)cc1` [Compound 23, (S)-FURAN-2-CARBOXYLIC ACID (4-{6-AMINO-2-[2-(S)-AMINO-3-(1H-INDOL-3-YL)-PROPIONYLAMINO]-HEXANOYLAMINO}-BENZYL)-CYCLOHEXYL-AMIDE], the IC50 is reported as 10 to 50 µM. `Cc1ccc(NC(=O)C(CCCCN)NC(=O)NCCc2ccc(-c3ccccc3)cc2)cc1` [Compound 76, (S)-6-AMINO-2-[3-(2-BIPHENYL-4-YL-ETHYL)-UREIDO]-HEXANOIC ACID P-TOLYLAMIDE] gave an IC50 of 10 to 50 µM. In the case of `Cc1ccc(NC(=O)C(CNC(=O)CN)NC(=O)OCC2c3ccccc3-c3ccccc32)cc1` [Compound 115, (S)-[2-(2-AMINO-ACETYLAMINO)-1-P-TOLYLCARBAMOYL-ETHYL]-CARBAMIC ACID 9H-FLUOREN-9-YLMETHYL ESTER], the IC50 is reported as 10 to 50 µM. Compound `NCCCC[C@H](NC(=O)Cn1cnc2c(NC(=O)c3ccccc3)ncnc21)C(=O)N(Cc1ccccc1)C1CCCCC1` [Compound 88, (S)-N-(9-{[5-AMINO-1-(BENZYL-CYCLOHEXYL-CARBAMOYL)-PENTYLCARBAMOYL]-METHYL}-9H-PURIN-6-YL)-BENZAMIDE] has an IC50 greater than 50 µM. Work on `Cc1ccc(NC(=O)C(Cc2ccc(CN)cc2)NC(=O)Nc2ccc3c(c2)Cc2ccccc2-3)cc1` [Compound 147, (S)-3-(4-AMINOMETHYL-PHENYL)-2-[3-(9H-FLUOREN-2-YL)-UREIDO]-N-P-TOLYL-PROPIONAMIDE] yielded an IC50 of less than 10 µM. `NCc1ccc(NC(=O)C(NC(=O)Nc2ccc(OCc3ccccc3)cc2)c2ccccc2)cc1` [Compound 305, (S)-NR-(4-AMINOMETHYL-PHENYL)-2-[3-(4-BENZYLOXY-PHENYL)-UREIDO]-2-PHENYL-ACETAMIDE] showed an IC50 of less than 10 µM. For `CC(=O)Nc1ccc(NC(=O)[C@H](CCCCN)NC(=O)OCC2c3ccccc3-c3ccccc32)cc1` [Compound 230, (S)-[1-(4-ACETYLAMINO-PHENYLCARBAMOYL)-5-AMINO-PENTYL]-CARBAMIC ACID 9H-FLUOREN-9-YLMETHYL ESTER], the IC50 was greater than 50 µM. Compound `NCCCC[C@@H](NC(=O)NCc1ccc(Cl)cc1)C(=O)Nc1ccc(C2CCCCC2)cc1` [Compound 164, (R)-6-AMINO-2-[3-(4-CHLORO-BENZYL)-UREIDO]-HEXANOIC ACID (4-CYCLOHEXYL-PHENYL)-AMIDE] has an IC50 of less than 10 µM. `Cc1ccc(CNCC(=O)NC(CCCCN)C(=O)Nc2ccc(C)cc2)cc1` [Compound 340, (S)-6-AMINO-2-[2-(4-METHYL-BENZYLAMINO)-ACETYLAMINO]-HEXANOIC ACID P-TOLYLAMIDE] was tested, and the IC50 was greater than 50 µM. `Cc1ccc(NC(=O)C(CCNC(=O)CCN)NC(=O)OCC2c3ccccc3-c3ccccc32)cc1` [Compound 179, (S)-[3-(3-AMINO-PROPIONYLAMINO)-1-P-TOLYLCARBAMOYL-PROPYL]-CARBAMIC ACID 9H-FLUOREN-9-YLMETHYL ESTER] was tested, and the IC50 was 10 to 50 µM. In the case of `Cc1cc(NC(=O)[C@H](CCCCN)NC(=O)Nc2ccc(OCc3ccccc3)cc2)n(-c2ccccc2)n1` [Compound 316, (S)-6-AMINO-2-[3-(4-BENZYLOXY-PHENYL)-UREIDO]-HEXANOIC ACID (5-METHYL-2-PHENYL-2H-PYRAZOL-3-YL)-AMIDE], the IC50 is reported as 10 to 50 µM. Work on `Cc1ccc(NC(=O)[C@H](CCCCN)NC(=O)COc2ccc(Oc3ccccc3)cc2)cc1` [Compound 333, (S)-6-AMINO-2-[2-(4-PHENOXY-PHENOXY)-ACETYLAMINO]-HEXANOIC ACID P-TOLYLAMIDE] yielded an IC50 greater than 50 µM. For `NCCCC[C@H](NC(=O)OCC1c2ccccc2-c2ccccc21)C(=O)Nc1cccc(F)c1` [Compound 80, (S)-[5-AMINO-1-(3-FLUORO-PHENYLCARBAMOYL)-PENTYL]-CARBAMIC ACID 9H-FLUOREN-9-YLMETHYL ESTER], the IC50 was greater than 50 µM. Compound `Cc1ccc(NC(=O)C(CCCCN)NC(=O)Nc2ccc(CN(C)c3ccc([N+](=O)[O-])cc3)cc2)cc1` [Compound 251, (S)-6-AMINO-2-[3-(4-{[METHYL-(4-NITRO-PHENYL)-AMINO]-METHYL}-PHENYL)-UREIDO]-HEXANOIC ACID P-TOLYLAMIDE] has an IC50 of less than 10 µM. Work on `NCCCC[C@H](NC(=O)Nc1ccc(OCc2ccccc2)cc1)C(=O)NC1CC1` [Compound 266, (S)-6-AMINO-2-[3-(4-BENZYLOXY-PHENYL)-UREIDO]-HEXANOIC ACID CYCLOPROPYLAMIDE] yielded an IC50 greater than 50 µM. Compound `Cc1ccc(NC(=O)[C@H](CCCCN)NC(=O)CNc2ccc(Cl)cc2)cc1` [Compound 363, (S)-6-AMINO-2-[2-(4-CHLORO-PHENYLAMINO)-ACETYLAMINO]-HEXANOIC ACID P-TOLYLAMIDE] has an IC50 greater than 50 µM. `Cc1ccc(NC(=O)[C@H](CCCCN)NS(=O)(=O)c2ccccc2)cc1` [Compound 387, (S)-6-AMINO-2-BENZENESULFONYLAMINO-HEXANOIC ACID P-TOLYLAMIDE] was tested, and the IC50 was greater than 50 µM. Work on `Cc1ccc(NC(=O)C(CCCN)NC(=O)OCC2c3ccccc3-c3ccccc32)cc1` [Compound 102, (R)-(4-AMINO-1-P-TOLYLCARBAMOYL-BUTYL)-CARBAMIC ACID 9H-FLUOREN-9-YLMETHYL ESTER] yielded an IC50 greater than 50 µM. For `Cc1cc2cc(NC(=O)C(Cc3ccc(CN)cc3)NC(=O)Nc3ccc(-c4ccccc4)cc3)ccc2[nH]1` [Compound 234, (S)-3-(4-AMINOMETHYL-PHENYL)-2-(3-BIPHENYL-4-YL-UREIDO)—NR-(2-METHYL-1H-INDOL-5-YL)-PROPIONAMIDE], the IC50 was 10 to 50 µM. With `Cc1ccc(NC(=O)[C@H](CCCCN)NC(=O)CNCc2cccc(Cl)c2)cc1` [Compound 348, (S)-6-AMINO-2-[2-(3-CHLORO-BENZYLAMINO)-ACETYLAMINO]-HEXANOIC ACID P-TOLYLAMIDE] the IC50 was greater than 50 µM. Compound `NCCCC[C@H](N)C(=O)Nc1ccc(CN(C(=O)c2ccco2)C2CCCCC2)cc1` [Compound 7, (S)-FURAN-2-CARBOXYLIC ACID CYCLOHEXYL-[4-(2,6-DIAMINO-HEXANOYLAMINO)-BENZYL]-AMIDE] has an IC50 greater than 50 µM. Work on `Cc1ccc(NC(=O)C(CCCCN)NC(=O)Nc2ccc(C(=O)c3ccccc3)cc2)cc1` [Compound 75, (S)-6-AMINO-2-[3-(4-BENZOYL-PHENYL)-UREIDO]-HEXANOIC ACID P-TOLYLAMIDE] yielded an IC50 greater than 50 µM. For `Cc1ccc(NC(=O)C(CO)NC(=O)OCC2c3ccccc3-c3ccccc32)cc1` [Compound 375, (R)-(2-HYDROXY-1-P-TOLYLCARBAMOYL-ETHYL)-CARBAMIC ACID 9H-FLUOREN-9-YLMETHYL ESTER], the IC50 was greater than 50 µM. Compound `Cc1ccc(NC(=O)[C@H](CCCCN)NC(=O)CNCc2ccccc2Cl)cc1` [Compound 347, (S)-6-AMINO-2-[2-(2-CHLORO-BENZYLAMINO)-ACETYLAMINO]-HEXANOIC ACID P-TOLYLAMIDE] has an IC50 greater than 50 µM. `NCCCC[C@H](NC(=O)OCC1c2ccccc2-c2ccccc21)C(=O)Nc1ccc(OCc2ccccc2)c(Cl)c1` [Compound 210, (S)-[5-AMINO-1-(4-BENZYLOXY-3-CHLORO-PHENYLCARBAMOYL)-PENTYL]-CARBAMIC ACID 9H-FLUOREN-9-YLMETHYL ESTER] was tested, and the IC50 was less than 10 µM. `Cc1ccc(NC(=O)C(CCC(=O)O)NC(=O)OCC2c3ccccc3-c3ccccc32)cc1` [Compound 372, (S)-4-(9H-FLUOREN-9-YLMETHOXYCARBONYLAMINO)-4-P-TOLYLCARBAMOYL-BUTYRIC ACID] was tested, and the IC50 was greater than 50 µM. With `Cc1ccc(NC(=O)[C@H](CCCCN)NC(=O)CNc2cccc(Cl)c2)cc1` [Compound 362, (S)-6-AMINO-2-[2-(3-CHLORO-PHENYLAMINO)-ACETYLAMINO]-HEXANOIC ACID P-TOLYLAMIDE] the IC50 was greater than 50 µM. `Cc1cc2cc(NC(=O)CN(CCCCN)C(=O)OCC3c4ccccc4-c4ccccc43)ccc2[nH]1` [Compound 295, (4-AMINO-BUTYL)-[(2-METHYL-1H-INDOL-5-YLCARBAMOYL)-METHYL]-CARBAMIC ACID 9H-FLUOREN-9-YLMETHYL ESTER] gave an IC50 of less than 10 µM. Work on `Cc1ccc(NC(=O)C(CCC(=O)O)NC(=O)OCC2c3ccccc3-c3ccccc32)cc1` [Compound 373, (R)-4-(9H-FLUOREN-9-YLMETHOXYCARBONYLAMINO)-4-P-TOLYLCARBAMOYL-BUTYRIC ACID] yielded an IC50 greater than 50 µM. `NCCCC[C@H](NC(=O)Nc1ccc(OCc2ccccc2)cc1)C(=O)NCC1CCCCC1` [Compound 265, (s)-6-AMINO-2-[3-(4-BENZYLOXY-PHENYL)-UREIDO]-HEXANOIC ACID CYCLOHEXYLMETHYL-AMIDE] showed an IC50 of 10 to 50 µM. `Cc1ccc(NC(=O)[C@H](CCCCN)NC(=O)COc2ccc(F)cc2)cc1` [Compound 329, (S)-6-AMINO-2-[^2-(^4-FLUORO-PHENOXY)-ACETYLAMINO]-HEXANOIC ACID P-TOLYLAMIDE] gave an IC50 greater than 50 µM.
